One data set concerns TNFα. The data set is described as follows: Lipopolysaccharide (LPS) stimulated whole blood measuring TNFα levels assay. The data set is classed as cell-based. The note with it: LPS 200 ng/ml, 24 hours, read-out: pIC50, TNFα levels in LPS stimulated whole blood (converted). As for the experimental part: Activation of monocytic cells by agonists of toll-like receptors such as bacterial lipopolysaccharide (LPS) results in production of key inflammatory mediators including TNFα. Such pathways are widely considered to be central to the pathophysiology of a range of auto-immune and inflammatory disorders.
After further incubation for 24 hours at 37 degrees, 140 ul of PBS are added to each well. The plates are sealed, shaken for 10 minutes and then centrifuged (2500 rpm×10 min). 100 ul of the supernatant are removed and TNFα levels assayed by immunoassay (typically by MesoScale Discovery technology) either immediately or following storage at −20 degrees. Dose response curves for each compound was generated from the data and an IC50 value was calculated.

Data set [1] has as its system Balb/c male mice given a lethal dose of LPS. The data set is described as follows: In vivo mouse endotoxemia model. Particulars: 15 mg/kg LPS i.p., compound 10 mg/kg intravenously ninety minutes later; for Numbers of animals surviving at 4 days (summed across multiple repeat experiments): survivors/total. The source says: High doses of Endotoxin (bacterial lipopolysaccharide) administered to animals produce a profound shock syndrome including a strong inflammatory response, dysregulation of cardiovascular function, organ failure and ultimately mortality. This pattern of response is very similar to human sepsis and septic shock, where the body's response to a significant bacterial infection can be similarly life threatening.
To test the compounds for use in the invention groups of eight Balb/c male mice were given a lethal dose of 15 mg/kg LPS by intraperitoneal injection. Ninety minutes later, animals were dosed intravenously with vehicle (20% cyclodextrin 1% ethanol in apyrogen water) or compound (10 mg/kg). The survival of animals was monitored at 4 days.

Consider five molecules from patent US20150133436A1, “Bromodomain Inhibitors For Treating Autoimmune And Inflammatory Diseases” (GlaxoSmithKline LLC, priority 2009, published 2015).

`CNCc1ccc(-c2ccc3c(c2)[C@H](NC(=O)OC(C)C)C[C@H](C)N3C(C)=O)cc1` [Example 1, 1-methylethyl ((2S,4R)-1-acetyl-2-methyl-6-{4-[(methylamino)methyl]phenyl}-1,2,3,4-tetrahydro-4-quinolinyl)carbamate]: in the data set with TNFα, the IC50 was no more than 1 µM.

With `CC(=O)N1c2ccc(-c3ccc(C(=O)O)cc3)cc2[C@H](Nc2ccc(Cl)cc2)C[C@@H]1C` [Example 5, 4-{(2S,4R)-1-acetyl-4-[(4-chlorophenyl)amino]-2-methyl-1,2,3,4-tetrahydro-6-quinolinyl}benzoic acid], in data set [1], the “Animals surviving at 4 days, percent” value is recorded as “(58%)” and the “Numbers of animals surviving at 4 days (summed across multiple repeat experiments)” value (from here on “Numbers of animals surviving at 4 days”) is 14/24. Further, the IC50 in the data set with TNFα is no more than 1 µM.

The term melting point denotes the temperature, or range, at which the solid turns liquid. As to `Cc1nnc2c(NC(N)=O)cc3cc(-c4ccc(CN5CCCCC5)cc4)ccc3n12` [Example 6, N-{1-methyl-7-[4-(1-piperidinylmethyl)phenyl][1,2,4]triazolo[4,3-a]quinolin-4-yl}urea], the melting point was greater than 260 °C. For the same molecule, the IC50 in the data set with TNFα was no more than 1 µM.

Turning to `COc1cc2c(cc1-c1c(C)noc1C)ncc1[nH]c(=O)n([C@H](C)c3ccccn3)c12` [Example 3, 7-(3,5-dimethyl-4-isoxazolyl)-8-(methoxy)-1-[(1R)-1-(2-pyridinyl)ethyl]-1,3-dihydro-2H-imidazo[4,5-c]quinolin-2-one], in data set [1], the “Animals surviving at 4 days, percent” value is “(83%)” and the “Numbers of animals surviving at 4 days” value was 55/66. Moreover, the IC50 in the data set on TNFα is no more than 1 µM.

As to `COc1cc2c(cc1-c1c(C)noc1C)ncc1nc(C3CCOCC3)n([C@H](C)c3ccccc3)c12` [Example 4, 7-(3,5-dimethyl-4-isoxazolyl)-8-(methoxy)-1-[(1R)-1-phenylethyl]-2-(tetrahydro-2H-pyran-4-yl)-1H-imidazo[4,5-c]quinoline], in data set [1], the “Animals surviving at 4 days, percent” value was “(38%)” and the “Numbers of animals surviving at 4 days” value is 9/24. For the same molecule, in the data set on TNFα, the IC50 is no more than 1 µM.
